# Reference: patent US9803223B2, “Coryneform bacterium transformant with improved aniline productivity and process for producing aniline using the same” (RESEARCH INSTITUTE OF INNOVATIVE TECHNOLOGY FOR THE EARTH, priority 2013, dated 2017)
# Entries after “also recorded” stand apart in the source; their conditions may differ.
# How the values were obtained:
# [1] = test system: Corynebacterium glutamicum R; assay: Influence of aniline addition on aerobic growth; assay type: cell-based; conditions: for growth of Corynebacterium glutamicum: aerobic culture 33° C., OD610
# Description: Corynebacterium glutamicum R was applied to A agar medium (2 g of (NH2)2CO3 7 g of (NH4)2SO4, 0.5 g of KH2PO4, 0.5 g of K2HPO4, 0.5 g of MgSO4.7H2O, 1 mL of 0.06% (w/v) Fe2SO4.7H2O+0.042% (w/v) MnSO4.2H2O, 1 mL of 0.02% (w/v) biotin solution, 2 mL of 0.01% (w/v) thiamin solution, 2 g of yeast extract, 7 g of vitamin assay casamino acid, 40 g of glucose, and 15 g of agar were suspended in 1 L of distilled water) and was left stand in the dark at 33° C. for 15 hours.
# An inoculation loop of the Corynebacterium glutamicum R grown on a plate as above was inoculated into a test tube containing 10 mL of A liquid medium (2 g of (NH2)2CO3 7 g of (NH4)2SO4, 0.5 g of KH2PO4, 0.5 g of K2HPO4, 0.5 g of MgSO4.7H2O, 1 mL of 0.06% (w/v) Fe2SO4.7H2O+0.042% (w/v) MnSO4.2H2O, 1 mL of 0.02% (w/v) biotin solution, 2 mL of 0.01% (w/v) thiamin solution, 2 g of yeast extract, 7 g of vitamin assay casamino acid, and 40 g of glucose were suspended in 1 L of distilled water) and was aerobically cultured with shaking at 33° C. for 15 hours.
# The Corynebacterium glutamicum R grown in the above conditions was inoculated into 10 mL of A liquid medium in such a way that the initial bacterial cell concentration would be OD610=0.1, aniline was added at the same time in such a way that the final concentration would be 0, 20, 40, 60, or 80 mM, and aerobic culture was performed with shaking at 33° C. The growth of the bacterial cells was determined by absorbance measurement at OD610.
# The vertical axis of FIG. 3 indicates OD610.
# Escherichia coli HST02 = assay: Growth inhibition experiment in aerobic culture, influence of aniline; assay type: cell-based; conditions: for growth of Escherichia coli HST02: aerobic culture 37° C., OD610
# Description: A growth inhibition experiment in aerobic culture was performed to examine the influence of aniline on Escherichia coli.
# Escherichia coli HST02 was applied to LB agar medium (1% polypeptone, 0.5% yeast extract, 0.5% NaCl and 1.5% agar) and was left stand in the dark at 37° C. for 15 hours.
# An inoculation loop of the Escherichia coli HST02 grown on a plate as above was inoculated into a test tube containing 10 mL of LB liquid medium (1% polypeptone, 0.5% yeast extract, and 0.5% NaCl), and aerobic culture was performed with shaking at 37° C. for 13 hours.
# The Escherichia coli HST02 grown in the above conditions was inoculated into 100 mL of LB liquid medium in such a way that the initial bacterial cell concentration would be OD610=0.1, aniline was added at the same time in such a way that the final concentration would be 0, 20, 40, 60, or 80 mM, and aerobic culture was performed with shaking at 37° C. The growth of the bacterial cells was determined by absorbance measurement at OD610. […] The vertical axis of FIG. 2 indicates OD610.
compound,measurement,setting,value
Nc1ccccc1 [aniline],growth of Corynebacterium glutamicum,[1]; 40 mM aniline,hardly affected
same,growth of Corynebacterium glutamicum,[1]; 60 mM aniline,able to grow
same,growth of coryneform bacterium,"[1]; aniline level increased up to 60 mM, aerobic culture",can grow
same,growth of Escherichia coli HST02,Escherichia coli HST02; 20 mM aniline,notably inhibited
same,growth of Escherichia coli HST02,Escherichia coli HST02; 40 mM aniline,significantly inhibited; also recorded: significantly affected
same,growth of Escherichia coli HST02,Escherichia coli HST02; 60 mM aniline,completely inhibited
same,growth of Escherichia coli,"Escherichia coli HST02; aniline level of 20 mM or higher, aerobic culture",greatly affected
